Experimental findings from patent US20240317735A1, “HYDROISOQUINOLINE OR HYDRONAPHTHYRIDINE COMPOUNDS FOR THE TREATMENT OF AUTOIMMUNE DISEASE” (Hoffmann-La Roche Inc., priority 2020, published 2024) are described below.

Data set [1] deals with T1, human TLR8 (Homo sapiens, UniProt Q9NR97).
T1 construct: host or cells: HEK293 (HEK-Blue hTLR8)
T1 sequence (Q9NR97 27-1041): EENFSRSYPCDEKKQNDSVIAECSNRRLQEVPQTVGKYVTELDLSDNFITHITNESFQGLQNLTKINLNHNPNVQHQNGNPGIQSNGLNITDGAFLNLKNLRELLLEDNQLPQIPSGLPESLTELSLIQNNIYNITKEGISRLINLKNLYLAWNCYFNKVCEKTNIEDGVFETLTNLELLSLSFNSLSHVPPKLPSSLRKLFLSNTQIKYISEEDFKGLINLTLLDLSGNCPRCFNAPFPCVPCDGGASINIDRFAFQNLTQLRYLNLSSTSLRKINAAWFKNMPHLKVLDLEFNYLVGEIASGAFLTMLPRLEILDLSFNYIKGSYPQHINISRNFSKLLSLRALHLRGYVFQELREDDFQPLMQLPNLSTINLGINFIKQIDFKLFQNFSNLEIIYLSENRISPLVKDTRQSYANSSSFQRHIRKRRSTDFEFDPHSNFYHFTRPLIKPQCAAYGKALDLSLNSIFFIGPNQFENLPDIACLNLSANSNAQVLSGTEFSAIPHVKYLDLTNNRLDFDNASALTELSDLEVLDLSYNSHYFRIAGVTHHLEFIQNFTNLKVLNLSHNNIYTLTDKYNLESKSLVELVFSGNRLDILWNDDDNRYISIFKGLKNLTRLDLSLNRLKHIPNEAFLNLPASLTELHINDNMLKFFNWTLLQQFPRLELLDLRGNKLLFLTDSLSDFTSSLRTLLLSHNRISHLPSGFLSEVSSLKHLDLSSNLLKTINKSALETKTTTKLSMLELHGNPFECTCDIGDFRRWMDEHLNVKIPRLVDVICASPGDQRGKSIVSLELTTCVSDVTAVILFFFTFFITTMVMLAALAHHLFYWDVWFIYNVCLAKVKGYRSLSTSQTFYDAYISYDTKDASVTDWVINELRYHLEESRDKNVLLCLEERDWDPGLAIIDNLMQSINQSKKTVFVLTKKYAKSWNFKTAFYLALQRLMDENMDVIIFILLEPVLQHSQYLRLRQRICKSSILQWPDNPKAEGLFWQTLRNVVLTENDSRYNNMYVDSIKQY
The data set can be described thus: HEK293-Blue-hTLR-8 cells assay (SEAP reporter, R848 stimulation). Particulars: HEK293-Blue-hTLR8 cells, R848, 20 hrs; read-out: HEK/hTLR8 IC50. It counts as cell-based. In short, it runs like this: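 HEK293-Blue hTLR8 cells with NF-κB/AP-1-driven SEAP reporter incubated 20 h at 37 °C with serially diluted compound (1% DMSO) and R848 stimulus (60 μM stock). Supernatant SEAP measured with QUANTI-Blue (2 h, 37 °C) by absorbance at 620–655 nm; antagonism read as reduced reporter signal.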

The nature of data set [2]: Human microsome stability assay. The data set is classed as in vitro ADME. As to conditions: 1 μM test compound, 0.5 mg/mL liver microsomal protein, 37° C., pH 7.4. The essentials:
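1 μM compound with 0.5 mg/mL human liver microsomes in 100 mM potassium phosphate pH 7.4, 37° C, started with NADPH-regenerating system after 10 min preincubation. Sampled at 0, 3, 6, 9, 15, 30 min, quenched in acetonitrile; parent remaining by LC-MS/MS, with no-NADPH controls.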
(Liver microsomes are a subcellular fraction often used to study metabolism.)

With `Cc1cc(N2Cc3cnc(OCCN4CCNCC4)cc3[C@@H](C)C2)c2cnn(C)c2n1` [Example 77, (4R)-2-(1,6-dimethylpyrazolo[3,4-b]pyridin-4-yl)-4-methyl-6-(2-piperazin-1-ylethoxy)-3,4-dihydro-1H-2,7-naphthyridine], the IC50 in data set [1] came to 16 nM. In addition, in data set [2], the “Clearance of Human microsome” value stood at 6.2 mL/min/kg.

On to `CO[C@@H]1CN(c2cc3c(cn2)CN(c2cc(C)nc4c2cnn4C)C[C@@H]3C)C[C@H]1N` [Example 78, (3R,4R)-4-methoxy-1-[(5R)-7-(1,6-dimethylpyrazolo[3,4-b]pyridin-4-yl)-5-methyl-6,8-dihydro-5H-2,7-naphthyridin-3-yl]pyrrolidin-3-amine], for which, in data set [1], the IC50 was found to be 52 nM. In addition, the “Clearance of Human microsome” value in data set [2] is given as 6.9 mL/min/kg.

On to `Cc1cc(N2Cc3cnc(N4CC5(CNCCO5)C4)cc3[C@@H](C)C2)c2cnn(C)c2n1` [Example 79, 2-[(5R)-7-(1,6-dimethylpyrazolo[3,4-b]pyridin-4-yl)-5-methyl-6,8-dihydro-5H-2,7-naphthyridin-3-yl]-5-oxa-2,8-diazaspiro[3.5]nonane], for which the IC50 in data set [1] was 23 nM. The “Clearance of Human microsome” value in data set [2] came to 8.0 mL/min/kg.

For `Cc1cc(N2Cc3cnc(N4CC[C@@H](N)[C@H](F)C4)cc3[C@@H](C)C2)c2cnn(C)c2n1` [Example 80, (3R,4R)-3-fluoro-1-[(5R)-7-(1,6-dimethylpyrazolo[3,4-b]pyridin-4-yl)-5-methyl-6,8-dihydro-5H-2,7-naphthyridin-3-yl]piperidin-4-amine], the IC50 in data set [1] is 34 nM. For the same compound, in data set [2], the “Clearance of Human microsome” value is recorded as 6.2 mL/min/kg.
